Test results reported in PubChem BioAssay (NCI).
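Dose response: 5 concentrations. Exposure: 48 h. Format: 96-well plates. Endpoint: linear interpolation; highest concentration if not reached. TGI denotes the concentration required for complete inhibition of growth.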

Tests used:
Test in all cases: growth of human tumour cells (NCI), 48 h
[1] = test system: DU-145 prostate
[2] = test system: OVCAR-5 ovarian
[3] = test system: HL-60(TB) leukemia
[4] = test system: NCI/ADR-RES ovarian
[5] = test system: MDA-MB-435
[6] = test system: SF-539 CNS
[7] = test system: SW-620 colon
[8] = test system: K-562 leukemia
[9] = test system: SK-MEL-2 melanoma
[10] = test system: RPMI-8226 leukemia
[11] = test system: MCF7 breast
[12] = test system: ACHN renal
[13] = test system: M14 melanoma
[14] = test system: SF-295 CNS
[15] = test system: PC-3 prostate
[16] = test system: SK-OV-3 ovarian
[17] = test system: UO-31 renal
[18] = test system: OVCAR-3 ovarian
[19] = test system: MALME-3M melanoma
[20] = test system: KM12 colon
[21] = test system: MDA-MB-231 breast
[22] = test system: LOX IMVI melanoma
[23] = test system: NCI-H522 lung
[24] = test system: IGROV1 ovarian
[25] = test system: HCT-116 colon
[26] = test system: TK-10 renal
[27] = test system: HCC-2998 colon
[28] = test system: UACC-62 melanoma
[29] = test system: SNB-19 CNS
[30] = test system: A498 renal
[31] = test system: HCT-15 colon
[32] = test system: HOP-92 NSCLC
[33] = test system: NCI-H460 lung
[34] = test system: RXF 393 renal
[35] = test system: SN12C renal
[36] = test system: MOLT-4 leukemia
[37] = test system: OVCAR-8 ovarian
[38] = test system: SK-MEL-5 melanoma
[39] = test system: CCRF-CEM leukemia
[40] = test system: SR leukemia
[41] = test system: NCI-H23 lung
[42] = test system: CAKI-1 renal
[43] = test system: OVCAR-4 ovarian
[44] = test system: MDA-N
[45] = test system: HT29 colon
[46] = test system: SK-MEL-28 melanoma
[47] = test system: SNB-75 CNS
[48] = test system: EKVX NSCLC
[49] = test system: NCI-H226 lung
[50] = test system: HOP-62 NSCLC
[51] = test system: T-47D breast
[52] = test system: COLO 205 colon
[53] = test system: HS 578T breast
[54] = test system: 786-0 renal
[55] = test system: A549 NSCLC
[56] = test system: UACC-257 melanoma
[57] = test system: BT-549 breast
[58] = test system: SF-268 CNS
[59] = test system: U251 CNS

COc1ccc(Oc2ccc3cc4c(cc3c2O)OCO4)c2cc(C)oc12
TGI [1]: > 100 µM
TGI [2]: > 100 µM
TGI [3]: 83.9 µM
TGI [4]: 78.8 µM
TGI [5]: 75.1 µM
TGI [6]: > 100 µM
TGI [7]: > 100 µM
TGI [8]: 81.4 µM
TGI [9]: 47.4 µM
TGI [10]: 45.2 µM
TGI [11]: > 100 µM
TGI [12]: > 100 µM
TGI [13]: 78.9 µM
TGI [14]: > 100 µM
TGI [15]: > 100 µM
TGI [16]: > 100 µM
TGI [17]: > 100 µM
TGI [18]: > 100 µM
TGI [19]: 74.8 µM
TGI [20]: > 100 µM
TGI [21]: > 100 µM
TGI [22]: 43.9 µM
TGI [23]: 93.7 µM
TGI [24]: > 100 µM
TGI [25]: > 100 µM
TGI [26]: 93.7 µM
TGI [27]: 49.8 µM
TGI [28]: > 100 µM
TGI [29]: > 100 µM
TGI [30]: > 100 µM
TGI [31]: > 100 µM
TGI [32]: 70.1 µM
TGI [33]: 64.3 µM
TGI [34]: 45.1 µM
TGI [35]: > 100 µM
TGI [36]: 65.3 µM
TGI [37]: > 100 µM
TGI [38]: 32.3 µM
TGI [39]: 89.2 µM
TGI [40]: 93.3 µM
TGI [41]: > 100 µM
TGI [42]: > 100 µM
TGI [43]: > 100 µM
TGI [44]: > 100 µM
TGI [45]: 55.3 µM
TGI [46]: > 100 µM
TGI [47]: > 100 µM
TGI [48]: > 100 µM
TGI [49]: 83.8 µM
TGI [50]: > 100 µM
TGI [51]: > 100 µM
TGI [52]: 72.3 µM
TGI [53]: > 100 µM
TGI [54]: > 100 µM
TGI [55]: > 100 µM
TGI [56]: 61.1 µM
TGI [57]: 71.4 µM
TGI [58]: > 100 µM

CCCc1[nH]nc(C(N)=O)c1N=NN(C)C
TGI [1]: > 100 µM
TGI [3]: > 100 µM
TGI [4]: > 100 µM
TGI [5]: > 100 µM
TGI [6]: > 100 µM
TGI [7]: > 100 µM
TGI [8]: > 100 µM
TGI [9]: > 100 µM
TGI [10]: > 100 µM
TGI [11]: 80 µM
TGI [12]: > 100 µM
TGI [13]: > 100 µM
TGI [14]: > 100 µM
TGI [15]: > 100 µM
TGI [16]: > 100 µM
TGI [17]: > 100 µM
TGI [18]: > 100 µM
TGI [19]: > 100 µM
TGI [20]: > 100 µM
TGI [21]: > 100 µM
TGI [22]: > 100 µM
TGI [23]: 74.9 µM
TGI [24]: > 100 µM
TGI [25]: > 100 µM
TGI [26]: > 100 µM
TGI [27]: > 100 µM
TGI [28]: > 100 µM
TGI [29]: > 100 µM
TGI [30]: > 100 µM
TGI [31]: > 100 µM
TGI [32]: > 100 µM
TGI [34]: > 100 µM
TGI [35]: > 100 µM
TGI [36]: 49 µM
TGI [37]: > 100 µM
TGI [38]: > 100 µM
TGI [39]: > 100 µM
TGI [40]: 40.6 µM
TGI [41]: > 100 µM
TGI [42]: > 100 µM
TGI [43]: > 100 µM
TGI [44]: > 100 µM
TGI [45]: > 100 µM
TGI [46]: > 100 µM
TGI [47]: > 100 µM
TGI [48]: > 100 µM
TGI [49]: > 100 µM
TGI [50]: > 100 µM
TGI [51]: > 100 µM
TGI [52]: > 100 µM
TGI [53]: > 100 µM
TGI [54]: > 100 µM
TGI [55]: > 100 µM
TGI [56]: > 100 µM
TGI [57]: > 100 µM
TGI [58]: > 100 µM
TGI [59]: > 100 µM

CN(/N=C(\C(=O)O)c1ccccc1)C1=NCCN1
TGI [1]: > 100 µM
TGI [2]: > 100 µM
TGI [3]: > 100 µM
TGI [4]: > 100 µM
TGI [5]: > 100 µM
TGI [6]: > 100 µM
TGI [7]: > 100 µM
TGI [8]: > 100 µM
TGI [9]: > 100 µM
TGI [10]: > 100 µM
TGI [11]: > 100 µM
TGI [12]: > 100 µM
TGI [14]: > 100 µM
TGI [15]: > 100 µM
TGI [16]: > 100 µM
TGI [17]: > 100 µM
TGI [18]: > 100 µM
TGI [19]: > 100 µM
TGI [20]: > 100 µM
TGI [21]: > 100 µM
TGI [22]: > 100 µM
TGI [23]: > 100 µM
TGI [24]: > 100 µM
TGI [25]: > 100 µM
TGI [26]: > 100 µM
TGI [27]: > 100 µM
TGI [28]: > 100 µM
TGI [30]: > 100 µM
TGI [31]: > 100 µM
TGI [32]: > 100 µM
TGI [33]: > 100 µM
TGI [34]: > 100 µM
TGI [35]: > 100 µM
TGI [36]: > 100 µM
TGI [37]: > 100 µM
TGI [38]: > 100 µM
TGI [39]: > 100 µM
TGI [40]: > 100 µM
TGI [41]: > 100 µM
TGI [42]: > 100 µM
TGI [43]: > 100 µM
TGI [44]: > 100 µM
TGI [45]: > 100 µM
TGI [46]: > 100 µM
TGI [47]: > 100 µM
TGI [48]: > 100 µM
TGI [49]: > 100 µM
TGI [50]: > 100 µM
TGI [51]: > 100 µM
TGI [52]: > 100 µM
TGI [53]: > 100 µM
TGI [54]: > 100 µM
TGI [55]: > 100 µM
TGI [56]: > 100 µM
TGI [57]: > 100 µM
TGI [58]: > 100 µM
